Measurements reported in ChEMBL document CHEMBL1124275, “Synthesis and evaluation of multisubstrate inhibitors of an oncogene-encoded tyrosine-specific protein kinase. 1” (J Med Chem, 1988).

Columns and labels:
[1] = Inhibition of Phosphorylase (serine) Kinase activity
[2] = molecular target: T1, Tyrosine-protein kinase transforming protein Abl (Abelson murine leukemia virus, UniProt P00521); test: Inhibition of p60-vabl tyrosine kinase isolated from Abelson murine leukemia virus (A-MuLV)
T1 sequence (P00521 whole entry): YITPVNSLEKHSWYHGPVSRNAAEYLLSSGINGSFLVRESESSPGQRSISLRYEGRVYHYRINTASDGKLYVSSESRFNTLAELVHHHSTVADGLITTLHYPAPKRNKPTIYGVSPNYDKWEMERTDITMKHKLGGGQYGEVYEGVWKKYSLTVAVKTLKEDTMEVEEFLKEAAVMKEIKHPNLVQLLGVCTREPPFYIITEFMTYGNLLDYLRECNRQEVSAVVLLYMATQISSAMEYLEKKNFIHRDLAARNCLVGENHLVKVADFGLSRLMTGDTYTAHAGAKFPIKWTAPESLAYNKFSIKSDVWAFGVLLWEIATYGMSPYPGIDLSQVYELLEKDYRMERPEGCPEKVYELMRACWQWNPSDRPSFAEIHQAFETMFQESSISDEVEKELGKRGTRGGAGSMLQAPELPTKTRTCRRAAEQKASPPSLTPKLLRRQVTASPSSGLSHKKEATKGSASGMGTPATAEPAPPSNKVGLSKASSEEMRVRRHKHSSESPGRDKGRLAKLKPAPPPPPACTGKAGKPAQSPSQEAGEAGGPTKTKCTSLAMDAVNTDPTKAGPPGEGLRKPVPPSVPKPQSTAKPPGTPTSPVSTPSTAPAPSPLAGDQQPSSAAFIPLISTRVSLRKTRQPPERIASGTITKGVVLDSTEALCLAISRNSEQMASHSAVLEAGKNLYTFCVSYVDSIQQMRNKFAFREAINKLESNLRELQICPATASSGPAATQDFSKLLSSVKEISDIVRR

SMILES | IC50 [1] [µM] | IC50 [2] [µM]
Nc1ncnc2c1ncn2[C@@H]1O[C@H](COC(=O)c2ccc(S(N)(=O)=O)cc2)[C@@H](O)[C@H]1O | 60 | 120
Nc1ncnc2c1ncn2[C@@H]1O[C@H](COC(=O)c2ccc(S(=O)(=O)NCc3ccccc3)cc2)[C@@H](O)[C@H]1O |  | 45
CC(=O)NC(Cc1ccc(OS(=O)(=O)c2ccc(C(=O)OC[C@H]3O[C@@H](n4cnc5c(N)ncnc54)[C@H](O)[C@@H]3O)cc2)cc1)C(N)=O (some centres undefined) |  | 120
CS(=O)(=O)c1ccc(C(=O)OC[C@H]2O[C@@H](n3cnc4c(N)ncnc43)[C@H](O)[C@@H]2O)cc1 |  | 63
Nc1ncnc2c1ncn2[C@@H]1O[C@H](COC(=O)c2ccc(S(=O)(=O)F)cc2)[C@@H](O)[C@H]1O | 250 | 150
Nc1ncnc2c1ncn2[C@@H]1O[C@H](COC(=O)c2ccc(S(=O)(=O)Nc3ccccc3)cc2)[C@@H](O)[C@H]1O | 25 | 19
Nc1ncnc2c1ncn2[C@@H]1O[C@H](COC(=O)c2ccc(S(=O)(=O)Oc3ccccc3)cc2)[C@@H](O)[C@H]1O | 80 | 170
Nc1ncnc2c1ncn2[C@@H]1O[C@H](COC(=O)c2ccc(S(=O)(=O)NCCc3ccccc3)cc2)[C@@H](O)[C@H]1O |  | 50
Nc1ncnc2c1ncn2[C@@H]1O[C@H](COC(=O)c2ccc(S(=O)(=O)NCCCc3ccccc3)cc2)[C@@H](O)[C@H]1O | 50 | 56
